Experimental data reported in PubChem BioAssay (NCI).
Where “and” joins values, the source holds several entries; their conditions need not be identical. Equal values may be shown once.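 Five concentrations, 48 hours, 96-well plates. GI50 is the concentration that inhibits growth by half. TGI is the concentration that stops growth completely.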

Legend:
Test in all cases: NCI-60 cell line screen, 48 h
SK-MEL-2 melanoma = system: SK-MEL-2 melanoma
A549 NSCLC = system: A549 NSCLC
CAKI-1 renal = system: CAKI-1 renal
T-47D breast = system: T-47D breast
HL-60(TB) leukemia = system: HL-60(TB) leukemia
DU-145 prostate = system: DU-145 prostate
OVCAR-5 ovarian = system: OVCAR-5 ovarian
UACC-62 melanoma = system: UACC-62 melanoma
MOLT-4 leukemia = system: MOLT-4 leukemia
OVCAR-8 ovarian = system: OVCAR-8 ovarian

Row | SMILES | GI50 (SK-MEL-2 melanoma) | TGI (SK-MEL-2 melanoma) | GI50 (A549 NSCLC) | TGI (A549 NSCLC) | GI50 (CAKI-1 renal) | TGI (CAKI-1 renal) | GI50 (T-47D breast) | TGI (T-47D breast) | GI50 (HL-60(TB) leukemia) | TGI (HL-60(TB) leukemia) | GI50 (DU-145 prostate) | TGI (DU-145 prostate) | GI50 (OVCAR-5 ovarian) | TGI (OVCAR-5 ovarian) | GI50 (UACC-62 melanoma) | TGI (UACC-62 melanoma) | GI50 (MOLT-4 leukemia) | TGI (MOLT-4 leukemia) | GI50 (OVCAR-8 ovarian) | TGI (OVCAR-8 ovarian)
1 | COc1cc(C[C@H]2COC(=O)[C@]2(O)Cc2ccc(OCc3ccccc3)c(OC)c2)ccc1OCc1ccccc1 | > 100 µM | > 100 µM | 7.13 µM | > 100 µM | 19.4 µM | > 100 µM | 12.1 µM | > 100 µM | 28 µM | > 100 µM | 85.9 µM | > 100 µM | > 100 µM | > 100 µM | 40.5 µM | > 100 µM | 6.2 µM | > 100 µM | 12.3 µM | > 100 µM
2 | COc1ccc([N+](=O)[O-])c2c(NCCCN(C)C)c(C)c(C)nc12 |  | > 100 µM |  | > 100 µM |  | > 100 µM |  | > 100 µM |  | > 100 µM |  | > 100 µM |  | > 100 µM |  | > 100 µM |  | > 100 µM |  | > 100 µM
3 | CCc1nc(N)nc(N)c1C#CC(C)c1ccc(-c2ccncc2)cc1Cl (stereo not drawn) | 0.579 µM and 1.75 µM | 3.33 µM and 17.6 µM | < 0.005 µM | 2 µM and 11.4 µM | 0.0259 µM | 5.07 µM | 0.0896 µM and 0.675 µM | 2.2 µM and 13.6 µM | 0.0226 µM and 0.0298 µM | 1.75 µM and 2.61 µM | 0.0242 µM and 0.0658 µM | 5.01 µM and 13.7 µM | 0.115 µM and 0.133 µM | 6.17 µM and 18.6 µM | < 0.005 µM and 0.0186 µM | 4.39 µM and 10.9 µM | 0.0276 µM and 0.0493 µM | 4.62 µM and 8.45 µM | < 0.005 µM and 0.0299 µM | 7.66 µM and 37.7 µM
4 | COc1ccc(C2=C(c3ccc(OC)cc3)C(=O)OC2)cc1 | 1.48 µM | > 48.6 µM | 2.57 µM | > 100 µM | 0.489 µM | 14.8 µM | 8.89 µM | > 65.6 µM | 0.525 µM | 4.58 µM | 2.38 µM | > 46.6 µM | 20.2 µM | > 100 µM | 1.3 µM | 20.6 µM | 1.29 µM | 23.8 µM | 1.35 µM | > 52.3 µM
5 | O=C(c1ccc(Cl)cc1Cl)N1CCN(C(=O)c2ccc(Cl)cc2Cl)C1=S | 18.4 µM | 36.2 µM | 20.1 µM | 43.2 µM | 22.1 µM | 52.1 µM | 19.5 µM | 62.6 µM | 16.6 µM | 34.1 µM | 30.6 µM | 98.9 µM | 21.6 µM | 60.4 µM | 17.3 µM | 31.6 µM | 20.5 µM | 43.5 µM | 22.1 µM | 48.5 µM
6 | CCCC(=O)Oc1ccc(/C(=C(\C)c2ccc(Cl)cc2)c2ccc(OCCN(CC)CC)cc2)cc1 | 2.83 µM | 5.93 µM | 2.58 µM | 6.91 µM | 3.99 µM | 16.3 µM | 1.39 µM | 4.88 µM | 2.23 µM | 5.52 µM | 3.46 µM | 12.4 µM | 4.84 µM | 19.7 µM | 2.06 µM | 4.04 µM | 3.09 µM | 10.5 µM | 3.43 µM | 11.9 µM
7 | O=C(CSSCC(=O)c1ccc(Cl)cc1)c1ccc(Cl)cc1 | 3.8 µM | 15.1 µM | 10.4 µM | 43.2 µM | 4.99 µM | 28.6 µM | 8.66 µM | 45.2 µM | 3.75 µM | > 100 µM | 4.77 µM | 91.3 µM | 5.83 µM | 21.5 µM | 3.1 µM | 14.5 µM | 3.28 µM | > 100 µM | 5.06 µM | 23.2 µM
8 | O=C1c2ccccc2C(=O)c2c1ccc1conc21 |  | 7.14 µM |  | 11.2 µM |  | 8.93 µM |  | 2.02 µM |  | 4.16 µM |  | 7.07 µM |  | 6.93 µM |  | 5.63 µM |  | 6.25 µM |  | 4.21 µM
9 | O=C(O)CCC(O)=C1S(=O)(=O)OCCOS1(=O)=O |  | > 100 µM |  | > 100 µM |  | > 100 µM |  | > 100 µM |  | > 100 µM |  | > 100 µM |  | > 100 µM |  | > 100 µM |  | > 100 µM |  | > 100 µM
10 | COc1ccc(/C=C\c2cc(OC)c(OC)c(OC)c2)cc1NC(=O)/C=C/c1ccc(OC)c(OC)c1 | 5.51 µM | > 100 µM | 4.89 µM | > 100 µM | 3.55 µM | > 100 µM | 5.98 µM | > 100 µM | 2.54 µM | 8.85 µM | 4.93 µM | > 100 µM | 7.69 µM | > 100 µM | 3.67 µM | > 100 µM | 6.66 µM | > 100 µM | 5.1 µM | > 100 µM
11 | CC(=O)CC[N+](C)(C)C |  | 64.4 µM |  | > 94.6 µM |  | 3.83 µM |  | 52.7 µM |  | 14 µM |  | > 79 µM |  | 67.6 µM |  | 52.4 µM |  | 24.7 µM |  | 67.5 µM
12 | Cc1cc(NC(=O)NCCOc2ccc(N3C(N)=NC(N)=NC3(C)C)cc2Cl)ccc1S(=O)(=O)F | 5.29 µM | 27.1 µM | 1.4 µM | > 68.3 µM | 55.4 µM | > 100 µM | 5.13 µM | 74.9 µM | 1.8 µM | 36.8 µM | 2.53 µM | > 100 µM | 1.44 µM | > 100 µM | 0.726 µM | 35.2 µM | 4.31 µM | > 100 µM | 4.91 µM | > 100 µM
13 | COc1ccc(Cn2cc3c(c2-c2ccccc2)CCc2cnoc2-3)cc1 | 2.79 µM | > 100 µM | 0.293 µM | > 100 µM | 0.0883 µM | > 100 µM | 1.32 µM | > 100 µM | 0.133 µM | 0.389 µM | 0.359 µM | 2.57 µM | 0.505 µM | > 100 µM | 0.0461 µM | > 100 µM | 0.361 µM | 4.38 µM | 0.416 µM | > 100 µM
14 | Nc1n[n+]([O-])c2ccc(Cl)cc2[n+]1[O-] |  | > 100 µM |  | > 100 µM |  | 91.2 µM |  | 99.4 µM |  | > 100 µM |  | > 100 µM |  | 79 µM |  |  |  | > 100 µM |  | 
